Measurements from patent US6777422B2, “Substituted tetrahydroisoquinolines as C5a receptor modulators” (Neurogen Corp., priority 2002, dated 2004).

target: T1, human C5a receptor (Homo sapiens, UniProt P21730); assay: C5a receptor mediated calcium mobilization assay (Example 20); type: cell-based; settings: differentiated U937 cells, read-out: Ca2+ (Ki in the standard assay of C5a receptor mediated calcium mobilization)
T1 construct: endogenous in cells; host or cells: U937 cells differentiated with 1 mM dibutyryl cAMP
T1 sequence (P21730 1-350): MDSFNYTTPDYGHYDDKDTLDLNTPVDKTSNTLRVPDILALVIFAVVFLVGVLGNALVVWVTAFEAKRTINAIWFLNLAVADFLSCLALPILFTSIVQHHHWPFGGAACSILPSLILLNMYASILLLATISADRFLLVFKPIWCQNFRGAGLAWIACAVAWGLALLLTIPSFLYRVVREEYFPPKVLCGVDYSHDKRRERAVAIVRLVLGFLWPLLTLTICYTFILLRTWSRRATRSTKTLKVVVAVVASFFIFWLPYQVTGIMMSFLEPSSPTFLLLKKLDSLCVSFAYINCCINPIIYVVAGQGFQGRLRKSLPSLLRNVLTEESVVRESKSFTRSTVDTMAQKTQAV
Method: Calcium Mobilization Assays
U937 cells are grown in differentiation media (1 mM dibutyryl cAMP in RPMI 1640 medium containing 10% fetal bovine serum) for 48 hrs at 37° C. then reseeded onto 96-well plates suitable for use in a FLIPR™ Plate Reader (Molecular Devices Corp., Sunnyvale Calif.). Cells are grown an additional 24 hours (to 70-90% confluence) before the assay. The cells are then washed once with Krebs Ringer solution. FLUO-3 calcium sensitive dye (Molecular Probes, Inc. Eugene, Oreg.) is added to 10 μg/mL and incubated with the cells at room temperature for 1 to 2 hours. The 96 well plates are then washed to remove excess dye. Fluorescence responses, measured by excitation at 480 nm and emission at 530 nm, are monitored upon the addition of human C5a to the cells to a final concentration of 0.01-30.0 nM, using the FLIPR™ device (Molecular Devices).
C. Assays for the Identification of Receptor Modulatory Agents: Antagonists and Agonists
The calcium mobilization assay described above may be readily adapted for identifying test compounds that have agonist or antagonist activity at the human C5a receptor.
For example, in order to identify antagonist compounds, differentiated U937 cells are washed and incubated with Fluo-3 dye as described above. One hour prior to measuring the fluorescence signal, a subset of the cells is incubated with 1 μM of at least one compound to be tested. The fluorescence response upon the subsequent addition of 0.3 nM (final concentration) human recombinant C5a is monitored using the FLIPR™ plate reader. Antagonist compounds elicit at least a 2-fold decrease in the fluorescence response relative to that measured in the presence of human C5a alone. Preferred antagonist compounds elicit at least a 5-fold, preferably at least a 10-fold, and more preferably at least a 20-fold decrease in the fluorescence response relative to that measured in the presence of human C5a alone.

Ki, < 1 µM:
Cc1ccc(C2c3ccccc3CCN2CC(=O)N(Cc2ccccc2F)C2Cc3ccccc3C2)cc1C (stereo not shown) [Compound 35, N-(indan-2-yl)-2-[1-(3,4-dimethylphenyl)-3,4-dihydroisoquinolin-2(1H)-yl]-N-(2-fluorobenzyl)acetamide]
O=C(CN1CCc2ccccc2C1c1ccc(F)cc1C(F)(F)F)N(Cc1ccccc1F)C1Cc2ccccc2C1 (stereo not shown) [Compound 37, N-(indan-2-yl)-N-(2-fluorobenzyl)-2-[1-[4-fluoro-2-(trifluoromethyl)phenyl]-3,4-dihydroisoquinolin-2(1H)-yl]acetamide]
O=C(CN1CCc2ccccc2C1c1cc(F)ccc1C(F)(F)F)N(Cc1ccccc1F)C1Cc2ccccc2C1 (stereo not shown) [Compound 38, N-(indan-2-yl)-N-(2-fluorobenzyl)-2-[1-[5-fluoro-2-(trifluoromethyl)phenyl]-3,4-dihydroisoquinolin-2(1H)-yl]acetamide]
O=C(CN1CCc2ccccc2[C@H]1c1ccccc1Br)N(Cc1ccccc1F)C1Cc2ccccc2C1 [Compound 40, 2-[(1S)-1-(2-bromophenyl)-3,4-dihydroisoquinolin-2(1H)-yl]-N-(indan-2-yl)-N-(2-fluorobenzyl)acetamide]
O=C(CN1CCc2ccccc2[C@H]1c1ccccc1C(F)(F)F)N(Cc1ccccc1F)C1Cc2ccccc2C1 [Compound 41, N-(indan-2-yl)-N-(2-fluorobenzyl)-2-[(1S)-1-[2-(trifluoromethyl)phenyl]-3,4-dihydroisoquinolin-2(1H)-yl]acetamide]
Cc1ccccc1[C@@H]1c2ccccc2CCN1[C@@H](C)C(=O)N(Cc1ccccc1F)C1Cc2ccccc2C1 [Compound 42, (2S)-N-(indan-2-yl)-N-(2-fluorobenzyl)-2-[(1R)-1-(2-methylphenyl)-3,4-dihydroisoquinolin-2(1H)-yl]propanamide]
O=C(CN1CCc2ccccc2C1c1ccccc1-c1ccccc1)N(Cc1ccccc1F)C1Cc2ccccc2C1 (stereo not shown) [Compound 43, 2-[1-(1,1′-biphenyl-2-yl)-3,4-dihydroisoquinolin-2(1H)-yl]-N-(indan-2-yl)-N-(2-fluorobenzyl)acetamide]
O=C(CN1CCc2ccccc2C1c1cccc2ccccc12)N(Cc1ccccc1F)C1Cc2ccccc2C1 (stereo not shown) [Compound 44, N-(indan-2-yl)-N-(2-fluorobenzyl)-2-[1-(1-naphthyl)-3,4-dihydroisoquinolin-2(1H)-yl]acetamide]
O=C(CN1CCc2ccccc2C12CCc1ccccc12)N(Cc1ccccc1F)C1Cc2ccccc2C1 (stereo not shown) [Compound 45]
Cc1cccc(C2c3ccccc3CCN2CC(=O)N(Cc2ccccc2F)C2Cc3ccccc3C2)c1Cl (stereo not shown) [Compound 47, 2-[1-(2-chloro-3-methylphenyl)-3,4-dihydroisoquinolin-2(1H)-yl]-N-(indan-2-yl)-N-(2-fluorobenzyl)acetamide]
Cc1c(F)cccc1C1c2ccccc2CCN1CC(=O)N(Cc1ccccc1F)C1Cc2ccccc2C1 (stereo not shown) [Compound 48, N-(indan-2-yl)-N-(2-fluorobenzyl)-2-[1-(3-fluoro-2-methylphenyl)-3,4-dihydroisoquinolin-2(1H)-yl]acetamide]
O=C(CN1CCc2ccccc2C1c1cccc(C(F)(F)F)c1)N(Cc1ccccc1F)C1Cc2ccccc2C1 (stereo not shown) [Compound 50, N-(indan-2-yl)-N-(2-fluorobenzyl)-2-[1-[3-(trifluoromethyl)phenyl]-3,4-dihydroisoquinolin-2(1H)-yl]acetamide]
O=C(CN1CCc2ccccc2C1c1cccc2c1OCC2)N(Cc1ccccc1F)C1Cc2ccccc2C1 (stereo not shown) [Compound 53, 2-[1-(2,3-dihydro-1-benzofuran-7-yl)-3,4-dihydroisoquinolin-2(1H)-yl]-N-(indan-2-yl)-N-(2-fluorobenzyl)acetamide]
C[C@H]1CN(CC(=O)N(Cc2ccccc2F)C2Cc3ccccc3C2)[C@@H](c2ccccc2F)c2ccccc21 [Compound 54, N(indan-2-yl)-N-(2-fluorobenzyl)-2-[(1R,4R)-1-(2-fluorophenyl)-4-methyl-3,4-dihydroisoquinolin-2(1H)-yl]acetamide]
Cc1cccc(C)c1C1c2ccccc2CCN1CC(=O)N(Cc1ccccc1F)C1Cc2ccccc2C1 (stereo not shown) [Compound 56, N-(indan-2-yl)-2-[1-(2,6-dimethylphenyl)-3,4-dihydroisoquinolin-2(1H)-yl]-N-(2-fluorobenzyl)acetamide]
Cc1ccc(F)cc1C1c2ccccc2CCN1CC(=O)N(Cc1ccccc1F)C1Cc2ccccc2C1 (stereo not shown) [Compound 57, N-(indan-2-yl)-N-(2-fluorobenzyl)-2-[1-(5-fluoro-2-methylphenyl)-3,4-dihydroisoquinolin-2(1H)-yl]acetamide]
O=C(CN1CCc2ccccc2[C@@H]1c1ccccc1F)N(Cc1ccccc1F)C1Cc2ccccc2C1 [Compound 58, N-(indan-2-yl)-N-(2-fluorobenzyl)-2-[(1R)-1-(2-fluorophenyl)-3,4-dihydroisoquinolin-2(1H)-yl]acetamide]
C[C@H]1CN(CC(=O)N(Cc2ccccc2F)C2Cc3ccccc3C2)[C@@H](c2ccccc2Cl)c2ccccc21 [Compound 59, 2-[(1R,4R)-1-(2-chlorophenyl)-4-methyl-3,4-dihydroisoquinolin-2(1H)-yl]-N-(indan-2-yl)-N-(2-fluorobenzyl)acetamide]
C[C@@H](C(=O)N(Cc1ccccc1F)C1Cc2ccccc2C1)N1CCc2ccccc2[C@@H]1c1ccccc1F [Compound 60, (2S)-N-(indan-2-yl)-N-(2-fluorobenzyl)-2-[(1R)-1-(2-fluorophenyl)-3,4-dihydroisoquinolin-2(1H)-yl]propanamide]
Cc1ccc(C2c3ccccc3CCN2CC(=O)N(Cc2ccccc2F)C2Cc3ccccc3C2)cc1F (stereo not shown) [Compound 61, N-(indan-2-yl)-N-(2-fluorobenzyl)-2-[1-(3-fluoro-4-methylphenyl)-3,4-dihydroisoquinolin-2(1H)-yl]acetamide]
O=C(CN1CCc2ccccc2C1c1cccc2cccnc12)N(Cc1ccccc1F)C1Cc2ccccc2C1 (stereo not shown) [Compound 62, N-(indan-2-yl)-N-(2-fluorobenzyl)-2-(1-quinolin-8-yl-3,4-dihydroisoquinolin-2(1H)-yl)acetamide]
C[C@@H](C(=O)N(Cc1ccccc1F)C1Cc2ccccc2C1)N1CCc2ccccc2[C@@H]1c1cccc2ccccc12 [Compound 63, (2S)-N-(indan-2-yl)-N-(2-fluorobenzyl)-2-[(1R)-1-(1-naphthyl)-3,4-dihydroisoquinolin-2(1H)-yl]propanamide]
C[C@@H](C(=O)N(Cc1ccccc1F)C1Cc2ccccc2C1)N1CCc2ccccc2[C@@H]1c1ccccc1Cl [Compound 64, (2S)-2-[(1R)-1-(2-chlorophenyl)-3,4-dihydroisoquinolin-2(1H)-yl]-N-(indan-2-yl)-N-(2-fluorobenzyl)propanamide]
Cc1c(Cl)cccc1C1c2ccccc2CCN1CC(=O)N(Cc1ccccc1F)C1Cc2ccccc2C1 (stereo not shown) [Compound 65, 2-[1-(3-chloro-2-methylphenyl)-3,4-dihydroisoquinolin-2(1H)-yl]-N-(indan-2-yl)-N-(2-fluorobenzyl)acetamide]
Cc1ccc(F)c(C2c3ccccc3CCN2CC(=O)N(Cc2ccccc2F)C2Cc3ccccc3C2)c1 (stereo not shown) [Compound 66, N-(indan-2-yl)-N-(2-fluorobenzyl)-2-[1-(2-fluoro-5-methylphenyl)-3,4-dihydroisoquinolin-2(1H)-yl]acetamide]
Cc1cccc([C@H]2c3ccccc3CCN2[C@@H](C)C(=O)N(Cc2ccccc2F)C2Cc3ccccc3C2)c1C [Compound 67, (2S)-N-(indan-2-yl)-2-[(1R)-1-(2,3-dimethylphenyl)-3,4-dihydroisoquinolin-2(1H)-yl]-N-(2-fluorobenzyl)propanamide]
Cc1cccc([C@@H]2c3ccccc3CCN2[C@@H](C)C(=O)N(Cc2ccccc2F)C2Cc3ccccc3C2)c1C [Compound 68, (2S)-N-(indan-2-yl)-2-[(1S)-1-(2,3-dimethylphenyl)-3,4-dihydroisoquinolin-2(1H)-yl]-N-(2-fluorobenzyl)propanamide]
C[C@@H](C(=O)N(Cc1ccccc1F)C1Cc2ccccc2C1)N1CCc2ccccc2[C@@H]1c1ccccc1C(F)(F)F [Compound 69, (2S)-N-(indan-2-yl)-N-(2-fluorobenzyl)-2-[(1R)-1-[2-(trifluoromethyl)phenyl]-3,4-dihydroisoquinolin-2(1H)-yl]propanamide]
